Test results as given in patent US20160287624A1, “Water-Soluble Vitamins to Increase Oral Absorption and Bioavailability” (NESTEC S.A., priority 2013, published 2016).

Columns and labels:
Caco-2 cell monolayer = experiment: Absorption assessment in Caco-2 cell monolayer (A->B permeability)
Source text: (§1) A Caco-2 cellular model was used to study the effect of the stevia solubilizer on the intestinal absorption of vitamin B12. The Caco-2 cell monolayer model is the pharmaceutical industry standard for predicting human oral absorption. The test samples included:

[1] = rat, in vivo, po
Experimental: Rats (n=6 per group) were orally administered at a dose equivalent to 2 mg/70 kg person in a free form (unformulated control F4) or a formulation of Formula 1 (API:Stevia at 1:25 w/w), Formula 2 (API:Stevia at 1:50 w/w), or Formula 3 (API:Stevia at 1:125 w/w).
To answer the question whether the solubilizer enhanced the absorption of vitamin B12, the four formulations were assessed in a Sprague Dawley rat model at the vitamin B12 dose equivalent to 1 mg/70 kg person. Each group (formulation) had 6 rats (n=6). Each rat was orally gavaged and blood collected at 11 time points during a 12-hour period. The plasma samples were stored in a freezer prior to vitamin B12 analyses. Relative bioavailability was calculated by comparing the area under the time-concentration curves of formulated over the unformulated control.
Vitamin B12 in rat plasma over time after oral gavage with baseline normalized for all treatments were analyzed by a radioimmunoassay method. The vitamin B12 in rat plasma over a 12-hr period at 15, 30, 45, 60, 90 min, and 2, 2.5, 4, 6, 8, and 12 h after oral gavage at a dose equivalent to 2 mg/70 kg person in a free form (unformulated control) or a formulated form of Formula 1 (vitamin B12:stevia at 1:25 w/w), Formula 2 (vitamin B12:stevia at 1:50 w/w), or Formula 3 (vitamin B12:stevia at 1:125 w/w) were analyzed.

[2] = Stability of vitamin B12 in simulated gastric fluid (HPLC-UV); format: physicochemical; details: 37° C.
Experimental: The pH of simulated gastric fluid was measured. […] The solutions were incubated at 37° C. in the water bath of a shaker operated at 50 rpm. After 2 hrs. of incubation, 1 mL solution was taken for HPLC analysis.
The pure vitamin B12 (F4) was also reconstituted in gastric fluid as an unformulated control. Both sample solutions were made to contain 20 μg/ml vitamin B12, wrapped with aluminum foil to avoid exposure to light, and incubated at 37° C. for two hours. The solutions were then stored in a freezer for 22 hrs. The frozen samples were thawed to room temp before HPLC-UV analysis.

[3] = Absorption assessment in Caco-2 cell monolayer (A->B permeability); details: human, Caco-2, Mean A->B Papp, assay duration 2 hr; controls 10 μM, formulations analyte test conc. 20 μg/mL
Source text: as §1

| SMILES | Permeability across Caco-2 cell monolayer (Caco-2 cell monolayer) | Mean A->B Papp (Caco-2 cell monolayer; assay duration 2 hr, controls 10 μM, formulations analyte test conc. 20 μg/mL) | Time during which vitamin B12 in plasma was detected [1] | Tmax (the time at which Cmax is reached) [1] | Stability of vitamin B12 in gastric fluid ([2]; over a two hour period, 20 μg/ml) | R.E. (relative error) 2 hr ([2]; simulated gastric fluid, 2 hr) | Determined Concentration 2 hr ([2]; simulated gastric fluid, 2 hr, 0 hr 20.2 μg/mL) | Papp A→B at 2 h, 10 μM [3] |
| --- | --- | --- | --- | --- | --- | --- | --- | --- |
| C/C1=C2/[N-][C@H]([C@H](CC(N)=O)[C@@]2(C)CCC(=O)NC[C@@H](C)OP(=O)([O-])O[C@H]2[C@@H](O)[C@@H](n3cnc4cc(C)c(C)cc43)O[C@@H]2CO)[C@]2(C)N=C(/C(C)=C3N=C(/C=C4N=C1[C@@H](CCC(N)=O)C\4(C)C)[C@@H](CCC(N)=O)[C@]\3(C)CC(N)=O)[C@@H](CCC(N)=O)[C@]2(C)CC(N)=O.[CH3-].[Co+3] [Formula F4, methylcobalamin] | not permeable | <LLOQ^c | 480 min | 1.5 h | stable | 3.7% | 21.0 µg/mL |  |
| CNC(=C[N+](=O)[O-])NCCSCc1ccc(CN(C)C)o1 [Ranitidine] |  |  |  |  |  |  |  | 3 nm/s |
